Experimental data as given in patent US6117841A, “Substituted peptidylamine calcium channel blockers” (Warner-Lambert Company, priority 1999, dated 2000).
Where two headings read alike, the source gives them in different places.

Target: T1, N-type Ca^2+ Channel (Homo sapiens, UniProt Q00975)
T1 construct: host or cells: IMR-32 cells differentiated with dibutyryl cAMP and bromodeoxyuridine
Test: Measurement of N-type Ca2+ channel blocking potencies in IMR-32 cells using the fluorescent Ca2+ indicator Indo-1
Type: cell-based
Method: Measurement of N-type Ca^2+ Channel Blocking Potencies of Compounds in IMR-32 Cells Using the Fluorescent Ca^2 + Indicator Indo-1
IMR-32 cells are a human tumoral cell line of neural origin. […] Calcium flux into these cells may be induced by stimulation with elevated potassium concentrations. The L-channel component of calcium flux may be blocked by adding 5 μM nitrendipine. The remaining component of calcium entry into the IMR-32 cells is due to calcium flux through N-type calcium channels. Intracellular calcium concentrations are measured using the fluorescent calcium indicator Indo-1. The effect of drug concentration on calcium uptake is studied.
The IMR-32 cell line was obtained from the American Type Culture Collection (Rockville, Md.). Cells were grown in Eagle's Minimum Essential Medium with Earle's salts supplemented with 10% fetal bovine serum, 2 mM L-Gln and antibiotic/antimycotic mixture (Gibco). At approximately 80% confluency, differentiation was induced by the addition of 1 mM dibutyryl cAMP and 2.5 μM bromodeoxyuridine to the medium. After 7 to 13 days of differentiation, cells were detached using 0.5 mM EDTA and loaded with 5 μM Indo-1 acetoxymethyl ester (Molecular Probes, Eugene, Oreg.) at 30° C. for 45 minutes. Loaded cells were washed twice, resuspended (~10^7 cells/mL) in assay buffer (10 mM HEPES/Tris pH 7.4 in Hank's Balanced Salt Solution without bicarbonate or phenol red containing 0.5% bovine serum albumin) and kept on ice until use. Fluorescence measurements were carried out in a Photon Technology International (PTI, South Brunswick, N.J.) Model RF-F3004 spectrofluorometer with dual emission monochromators using excitation at 350 nm and emission at 400 and 490 nm. The instrument was equipped with a thermostated cuvette holder with stirring capabilities as well as with a computer-controlled pump which allowed for reagent addition during measurement. Instrument control and data collection was done by PTI's OSCAR software running on an IBM compatible computer. Different concentrations of the test compounds (60 μL in dimethyl sulfoxide) were added to 5.94 mL of assay buffer containing approximately 3×10^6 loaded cells, and 5 μM nitrendipine (in 30 μL EtOH) to block L-type Ca^2+ channels. Samples were incubated for 10 minutes at 30° C. and then aliquoted into three 10×10 mm disposable acrylic cuvettes. Emission signals at 400 and 490 nm were acquired from each cuvette at 30° C. for 50 seconds. At 20 seconds after the start of reading, cells were depolarized by the addition of 160 μL of stimulation solution (1 M KCl, 68 mM CaCl2) to the cuvette via the computer-controlled pump. Ratio of dual emission signals (400 nm/ 490 nm), which is proportional to intracellular Ca^2+ concentration, was plotted against time, and the difference between maximal response after stimulation and basal value (before stimulation) was determined. Values obtained in this way were plotted as a function of drug concentration. IC50 values of test compounds were calculated by fitting a four-parameter logistic function to the data using the least squares method.

[1] = IMR-32 cells, K+ depolarization, 5 μM nitrendipine to block L-type channels, read-out: IMR 32 IC50
[2] = IMR-32 cells, 5 μM nitrendipine
[3] = IMR-32 cells, 5 μM nitrendipine, Examples 116-140, read-out: IMR 32% of Blockade @

T1 sequence (Q00975 whole entry): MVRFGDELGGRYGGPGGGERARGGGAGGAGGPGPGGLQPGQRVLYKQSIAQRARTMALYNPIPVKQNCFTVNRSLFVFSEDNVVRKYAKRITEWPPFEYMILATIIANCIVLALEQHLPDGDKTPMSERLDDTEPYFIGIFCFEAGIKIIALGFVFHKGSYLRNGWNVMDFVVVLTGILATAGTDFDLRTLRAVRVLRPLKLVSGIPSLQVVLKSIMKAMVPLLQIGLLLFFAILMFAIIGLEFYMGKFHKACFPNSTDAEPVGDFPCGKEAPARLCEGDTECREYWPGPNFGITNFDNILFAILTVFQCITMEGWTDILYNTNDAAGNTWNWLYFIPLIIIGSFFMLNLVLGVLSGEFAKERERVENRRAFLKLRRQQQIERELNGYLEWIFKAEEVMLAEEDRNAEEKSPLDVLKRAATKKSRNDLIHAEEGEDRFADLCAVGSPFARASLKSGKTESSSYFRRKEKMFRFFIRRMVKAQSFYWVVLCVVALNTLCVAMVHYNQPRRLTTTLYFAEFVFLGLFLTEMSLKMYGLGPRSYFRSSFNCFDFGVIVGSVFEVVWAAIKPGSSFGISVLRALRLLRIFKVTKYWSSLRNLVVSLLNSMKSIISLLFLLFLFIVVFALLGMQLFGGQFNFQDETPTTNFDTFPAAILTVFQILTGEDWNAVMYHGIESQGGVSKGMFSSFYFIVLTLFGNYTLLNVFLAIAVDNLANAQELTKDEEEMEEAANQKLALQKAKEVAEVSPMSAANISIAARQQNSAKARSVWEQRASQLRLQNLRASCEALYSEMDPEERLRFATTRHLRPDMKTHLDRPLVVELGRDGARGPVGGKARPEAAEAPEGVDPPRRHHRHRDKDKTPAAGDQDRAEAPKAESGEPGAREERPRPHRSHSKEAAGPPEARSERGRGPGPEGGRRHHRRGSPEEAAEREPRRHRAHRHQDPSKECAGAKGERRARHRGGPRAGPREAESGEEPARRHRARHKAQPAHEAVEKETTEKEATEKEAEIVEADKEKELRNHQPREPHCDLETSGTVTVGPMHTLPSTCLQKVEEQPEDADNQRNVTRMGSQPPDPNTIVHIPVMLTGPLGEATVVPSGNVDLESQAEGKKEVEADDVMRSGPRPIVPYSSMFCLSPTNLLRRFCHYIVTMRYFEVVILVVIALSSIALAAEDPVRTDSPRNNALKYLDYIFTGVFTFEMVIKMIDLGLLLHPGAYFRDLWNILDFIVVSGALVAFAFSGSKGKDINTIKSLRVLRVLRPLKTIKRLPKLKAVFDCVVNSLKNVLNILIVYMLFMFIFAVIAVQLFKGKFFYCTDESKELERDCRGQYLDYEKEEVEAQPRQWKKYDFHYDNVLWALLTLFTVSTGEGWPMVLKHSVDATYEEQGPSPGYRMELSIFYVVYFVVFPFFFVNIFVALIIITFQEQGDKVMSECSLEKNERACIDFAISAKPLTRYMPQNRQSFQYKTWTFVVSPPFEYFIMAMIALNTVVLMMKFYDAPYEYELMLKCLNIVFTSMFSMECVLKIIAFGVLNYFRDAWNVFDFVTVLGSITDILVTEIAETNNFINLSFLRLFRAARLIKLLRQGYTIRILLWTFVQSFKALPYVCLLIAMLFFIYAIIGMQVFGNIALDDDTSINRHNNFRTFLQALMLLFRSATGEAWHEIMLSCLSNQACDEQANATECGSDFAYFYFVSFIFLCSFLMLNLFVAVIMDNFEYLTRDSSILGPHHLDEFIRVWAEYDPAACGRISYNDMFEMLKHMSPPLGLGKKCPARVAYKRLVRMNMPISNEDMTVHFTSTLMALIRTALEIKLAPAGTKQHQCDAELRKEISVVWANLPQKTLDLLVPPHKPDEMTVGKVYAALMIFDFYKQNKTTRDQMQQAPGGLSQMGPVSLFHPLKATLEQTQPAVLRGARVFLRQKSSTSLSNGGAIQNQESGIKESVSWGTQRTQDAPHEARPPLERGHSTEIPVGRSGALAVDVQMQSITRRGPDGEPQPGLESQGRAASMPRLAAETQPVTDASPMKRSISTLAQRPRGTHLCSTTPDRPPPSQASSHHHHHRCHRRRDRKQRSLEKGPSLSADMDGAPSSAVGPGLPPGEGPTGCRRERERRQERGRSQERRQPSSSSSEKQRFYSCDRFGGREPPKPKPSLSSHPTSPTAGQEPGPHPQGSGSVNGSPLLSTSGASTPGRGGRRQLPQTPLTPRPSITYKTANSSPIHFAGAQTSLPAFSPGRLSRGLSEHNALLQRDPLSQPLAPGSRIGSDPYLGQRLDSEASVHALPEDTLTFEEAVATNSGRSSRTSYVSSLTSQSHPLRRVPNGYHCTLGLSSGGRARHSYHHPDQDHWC
T1 sequence (P54284 whole entry partner): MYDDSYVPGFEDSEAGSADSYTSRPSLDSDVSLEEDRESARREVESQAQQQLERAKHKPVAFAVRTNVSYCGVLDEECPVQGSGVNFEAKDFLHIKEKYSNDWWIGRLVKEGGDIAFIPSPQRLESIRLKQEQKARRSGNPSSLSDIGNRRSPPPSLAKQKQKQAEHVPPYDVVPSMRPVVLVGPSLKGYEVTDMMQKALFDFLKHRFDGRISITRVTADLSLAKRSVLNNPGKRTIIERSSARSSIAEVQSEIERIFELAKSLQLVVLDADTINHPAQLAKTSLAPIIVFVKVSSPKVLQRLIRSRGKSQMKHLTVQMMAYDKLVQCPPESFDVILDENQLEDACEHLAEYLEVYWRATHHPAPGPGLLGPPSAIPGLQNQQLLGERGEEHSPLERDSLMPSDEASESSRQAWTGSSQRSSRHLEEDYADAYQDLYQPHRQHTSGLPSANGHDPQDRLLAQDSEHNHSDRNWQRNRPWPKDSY
T1 sequence (P54289 25-946 partner limits assumed): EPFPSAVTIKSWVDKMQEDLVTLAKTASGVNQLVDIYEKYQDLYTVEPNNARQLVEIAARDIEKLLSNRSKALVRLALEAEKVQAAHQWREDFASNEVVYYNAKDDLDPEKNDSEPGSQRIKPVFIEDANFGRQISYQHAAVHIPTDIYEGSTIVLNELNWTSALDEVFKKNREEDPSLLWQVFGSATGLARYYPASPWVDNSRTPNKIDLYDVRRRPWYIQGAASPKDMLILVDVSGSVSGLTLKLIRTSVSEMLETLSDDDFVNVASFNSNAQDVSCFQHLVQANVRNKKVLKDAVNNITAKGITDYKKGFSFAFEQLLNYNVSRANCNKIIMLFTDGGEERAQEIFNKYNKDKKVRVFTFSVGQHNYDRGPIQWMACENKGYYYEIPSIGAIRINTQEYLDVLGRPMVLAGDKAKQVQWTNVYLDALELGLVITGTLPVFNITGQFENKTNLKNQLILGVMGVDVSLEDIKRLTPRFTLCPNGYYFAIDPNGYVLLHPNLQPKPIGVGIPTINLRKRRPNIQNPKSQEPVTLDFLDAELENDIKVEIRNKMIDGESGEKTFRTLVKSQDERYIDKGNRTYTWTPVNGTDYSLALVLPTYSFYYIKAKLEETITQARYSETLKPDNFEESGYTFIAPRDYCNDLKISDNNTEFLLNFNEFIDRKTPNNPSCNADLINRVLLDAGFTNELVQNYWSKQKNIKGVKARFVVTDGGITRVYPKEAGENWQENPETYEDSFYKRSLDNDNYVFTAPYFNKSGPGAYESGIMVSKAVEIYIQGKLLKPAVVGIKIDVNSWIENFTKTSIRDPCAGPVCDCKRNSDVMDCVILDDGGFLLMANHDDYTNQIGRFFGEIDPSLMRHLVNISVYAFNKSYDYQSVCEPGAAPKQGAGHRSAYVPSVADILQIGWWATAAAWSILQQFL
T1 sequence (P54289 947-1103 partner limits assumed): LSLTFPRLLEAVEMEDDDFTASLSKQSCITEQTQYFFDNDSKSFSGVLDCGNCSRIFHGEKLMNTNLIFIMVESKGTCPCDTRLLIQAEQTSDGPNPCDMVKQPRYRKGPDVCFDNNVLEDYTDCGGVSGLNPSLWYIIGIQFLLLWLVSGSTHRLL

CC(C)C[C@H](NC1CCOCC1)C(=O)N[C@@H](Cc1ccc(OCc2ccccc2)cc1)C(=O)N1CCCCC1 (relative stereo) [Example 79, [S-(R*,R*)]-4-Methyl-2-(tetrahydro-pyran-4-ylamino)-pentanoic acid [1-(4-benzyloxy-benzyl)-2-oxo-2-piperidin-1-yl-ethyl]-amide]
IC50 [1]: 2100 nM

CC(C)C[C@H](NC1CCOCC1)C(=O)N[C@@H](Cc1ccc(OCc2ccccc2)cc1)C(=O)NCCNCc1ccccc1 (relative stereo) [Example 71, [S-(R*,R*)]-4-Methyl-2-(tetrahydro-pyran-4-ylamino)-pentanoic acid [1-(2-benzylamino-ethylcarbamoyl)-2-(4-benzyloxy-phenyl)-ethyl]-amide]
IC50 [1]: 700 nM

CC(C)CCN(C)[C@@H](CC(C)C)C(=O)N[C@@H](Cc1ccc(OCc2ccccc2)cc1)C(=O)NC1CCN(Cc2ccccc2)CC1 (relative stereo) [Example 11, [S-(R*,R*)]-4-Methyl-2-[methyl-(3-methyl-butyl)-amino]-pentanoic acid [2-(4-benzyloxy-phenyl)-1-(1-benzyl-piperidin-4-ylcarbamoyl)-ethyl]-amide]
IMR 32 % of Blockade @ 1 μM [2]: 70%
IMR 32 % of Blockade @ 10 μM [2]: 89%

CC(C)C[C@H](NCc1ccc(C(C)(C)C)cc1)C(=O)N[C@@H](Cc1ccc(OCc2ccccc2)cc1)C(=O)N1CCN(Cc2ccccc2)CC1 (relative stereo) [Example 52, [S-(R*,R*)]-2-(4-tert-Butyl-benzylamino)-4-methyl-pentanoic acid [1-(4-benzyloxy-benzyl)-2-(4-benzyl-piperazin-1-yl)-2-oxo-ethyl]-amide]
IC50 [1]: 770 nM

CC(C)C[C@@H](C(=O)N[C@@H](Cc1ccc(OCc2ccccc2)cc1)C(=O)NC1CCN(Cc2ccccc2)CC1)N(C)C (relative stereo) [Example 5, [S-(R*,R*)]-2-Dimethylamino-4-methyl-pentanoic acid [2-(4-benzyloxy-phenyl)-1-(1-benzyl-piperidin-4-yl-carbamoyl)-ethyl]-amide]
IMR 32 % of Blockade @ 1 μM [2]: 24%
IMR 32 % of Blockade @ 10 μM [2]: 81%

CC(C)CCN(C)[C@@H](CC(C)C)C(=O)N[C@@H](Cc1ccc(OCc2ccccc2)cc1)C(=O)NCCCN1CCCC1=O (relative stereo) [Example 118, [S-(R*,R*)]-4-Methyl-2-[methyl-(3-methyl-butyl)-amino]-pentanoic acid {2-(4-benzyloxy-phenyl)-1-[3-(2-oxo-pyrrolidin-1-yl)-propylcarbamoyl]-ethyl}-amide]
IC50 [3]: 1900 nM

CC(C)CC(NCc1ccc(C(C)(C)C)cc1)C(=O)NC(Cc1ccc(OCc2ccccc2)cc1)C(=O)NC(C)(C)C (stereo not drawn) [Example 50, [S-(R*,R*)]-2-(4-tert-Butyl-benzylamino)-4-methyl-pentanoic acid [2-(4-benzyloxy-phenyl)-1-tert-butylcarbamoyl-ethyl]-amide]
IC50 [1]: 420 nM

CC(C)C[C@@H](C(=O)N[C@@H](Cc1ccc(OCc2ccccc2)cc1)C(=O)N1CCSCC1)N(C)C (relative stereo) [Example 135, [S-(R*,R*)]-2-Dimethylamino-4-methyl-pentanoic acid [2-(4-benzyloxy-phenyl)-1-(thiomorpholinecarbamoyl)-ethyl]-amide]
IC50 [3]: 1400 nM

CC(C)C[C@@H](C(=O)N[C@@H](Cc1ccc(OCc2ccccc2)cc1)C(=O)N1CCCCC1)N(C)CC1CCCCC1 (relative stereo) [Example 26, [S-(R*,R*)]-2-(Cyclohexylmethyl-methyl-amino)-4-methyl-pentanoic acid [^2-(^4-benzyloxy-phenyl)-1-(piperidine-1-carbonyl)-ethyl]-amide]
IC50 [1]: 600 nM

CC(C)C[C@@H](C(=O)N[C@@H](Cc1ccc(OCc2ccccc2)cc1)C(=O)NC(C)(C)C)N(C)CC(C)C (relative stereo) [Example 42, [S-(R*,R*)]-2-(Isobutyl-methyl-amino)-4-methyl-pentanoic acid [2-(4-benzyloxy-phenyl)-1-tert-butylcarbamoyl-ethyl]-amide]
IC50 [1]: 380 nM

CC(C)C[C@@H](C(=O)N[C@@H](Cc1ccc(OCc2ccccc2)cc1)C(=O)NC(C)(C)C)N(C)C1CCOCC1 (relative stereo) [Example 87, [S-(R*,R*)]-4-Methyl-2-[methyl-(tetrahydro-pyran-4-yl)-amino]-pentanoic acid [2-(4-benzyloxy-phenyl)-1-tert-butylcarbamoyl-ethyl]-amide]
IC50 [1]: 3100 nM

CC(C)C[C@H](NCc1ccccc1)C(=O)N[C@@H](Cc1ccc(OCc2ccccc2)cc1)C(=O)OC(C)(C)C (relative stereo) [Example 33, [S-(R*,R*)]-2-(2-Benzylamino-4-methyl-pentanoylamino)-3-(4-benzyloxy-phenyl)-propionic acid tert-butyl ester]
IMR 32 % of Blockade @ 1 μM [2]: 52%
IMR 32 % of Blockade @ 10 μM [2]: 95%

CCN(CC)C(CC(C)C)C(=O)N[C@@H](Cc1ccc(OCc2ccccc2)cc1)C(=O)NC(C)(C)C (stereo in doubt) [Example 37, [S-(R*,R*/S*)]-2-Diethylamino-4-methyl-pentanoic acid[2-(4-benzyloxy-phenyl)-1-tert-butylcarbamoyl-ethyl]-amide]
IC50 (read-out: IMR 32 IC50): 1000 nM

CC(C)CCN(C)[C@@H](CC(C)C)C(=O)N[C@@H](Cc1ccc(OCc2ccccc2)cc1)C(=O)NCCN1CCCCC1 (relative stereo) [Example 9, [S-(R*,R*)]-4-Methyl-2-[methyl-(3-methyl-butyl)-amino]-pentanoic acid [2-(4-benzyloxy-phenyl)-1-(2-piperidin-1-yl-ethylcarbamoyl)-ethyl]-amide]
IMR 32 % of Blockade @ 1 μM [2]: 60%
IMR 32 % of Blockade @ 10 μM [2]: 89%

CC(C)C[C@@H](C(=O)N[C@@H](Cc1ccc(OCc2ccccc2)cc1)C(=O)NC1CCN(Cc2ccccc2)CC1)N(C)C1CCCCC1 (relative stereo) [Example 23, [S-(R*,R*)]-2-(Cyclohexyl-methyl-amino)-4-methyl-pentanoic acid [2-(4-benzyloxy-phenyl)-1-(1-benzyl-piperidin-4-ylcarbamoyl)-ethyl]-amide]
IMR 32 % of Blockade @ 1 μM [2]: 53%
IMR 32 % of Blockade @ 3 μM (3 μM, IMR-32 cells, 5 μM nitrendipine): 80%

[S-(R*,R*)]-3-Methyl-2-[methyl-(3-methyl-butyl)-amino]-pentanoic acid [2-(4-benzyloxy-phenyl)-1-tert-butylcarbamoyl-ethyl]-amide [Example 44]
IMR 32 % of Blockade @ 0.3 μM: 35%
IMR 32 % of Blockade @ 3 μM: 74%

CCN[C@@H](CC(C)C)C(=O)N[C@@H](Cc1ccc(OCc2ccccc2)cc1)C(=O)NC(C)(C)C (relative stereo) [Example 100, [S-(R*,R*)]-2-Ethylamino-4-methyl-pentanoic acid [2-(4-benzyloxy-phenyl)-1-tert-butylcarbamoyl-ethyl]-amide]
IC50 [1]: 2000 nM

CC(C)CC(C(=O)NC(Cc1ccc(NCc2ccccc2)cc1)C(=O)NC(C)(C)C)N(C)Cc1ccc(C(C)(C)C)cc1 (stereo not drawn) [Example 55, [S-(R*,R*)]-2-[(4-tert-Butyl-benzyl)-methyl-amino]-4-methyl-pentanoic acid [2-(4-benzylamino-phenyl)-1-tert-butylcarbamoyl-ethyl]-amide]
IC50 [1]: 100 nM

CC(C)CCN(C)[C@@H](CC(C)C)C(=O)N[C@@H](Cc1ccc(OCc2ccccc2)cc1)C(=O)N1CCSCC1 (relative stereo) [Example 61, [S-(R*,R*)]-4-Methyl-2-[methyl-(3-methyl-butyl)-amino]-pentanoic acid [1-(4-benzyloxy-benzyl)-2-oxo-2-thiomorpholin-4-yl-ethyl]-amide]
IC50 [1]: 400 nM

CC(C)C[C@@H](C(=O)N[C@@H](Cc1ccc(OCc2ccccc2)cc1)C(=O)NC1CCN(Cc2ccccc2)CC1)N(C)Cc1ccc(C(C)(C)C)cc1 (relative stereo) [Example 17, S-(R*,R*)]-2-[(4-tert-Butyl-benzyl)-methyl-amino]-4-methyl-pentanoic acid [2-(4-benzyloxy-phenyl)-1-(1-benzyl-piperidin-4-yl-carbamoyl)-ethyl]-amide]
IC50 [1]: 440 nM
